One assay deals with T1, COX-2 (Homo sapiens, UniProt P35354).
T1 construct: gene PTGS2; kit is understood to hold human recombinant COX-2 (docking used PDB 4M11, not the assay protein)
T1 sequence (P35354 18-604): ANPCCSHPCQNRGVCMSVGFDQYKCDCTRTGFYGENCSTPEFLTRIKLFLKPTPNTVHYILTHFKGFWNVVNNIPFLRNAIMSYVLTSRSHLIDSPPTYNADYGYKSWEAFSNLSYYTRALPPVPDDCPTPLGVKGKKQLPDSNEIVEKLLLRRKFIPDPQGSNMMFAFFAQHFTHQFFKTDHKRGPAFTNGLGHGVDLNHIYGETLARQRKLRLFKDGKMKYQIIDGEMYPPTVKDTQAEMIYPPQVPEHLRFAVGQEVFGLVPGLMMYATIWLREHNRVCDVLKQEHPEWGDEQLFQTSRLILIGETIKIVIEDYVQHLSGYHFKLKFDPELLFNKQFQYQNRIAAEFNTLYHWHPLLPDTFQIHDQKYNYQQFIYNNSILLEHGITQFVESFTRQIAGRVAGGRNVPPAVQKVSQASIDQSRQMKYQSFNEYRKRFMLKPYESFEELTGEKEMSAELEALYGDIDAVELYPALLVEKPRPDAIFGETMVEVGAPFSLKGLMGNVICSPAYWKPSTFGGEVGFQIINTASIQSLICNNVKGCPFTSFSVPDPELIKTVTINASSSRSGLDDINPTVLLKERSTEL
In words: colorimetric COX peroxidase assay (Cayman […]), […] nm. It is filed as biochemical. The note with it: read-out: IC50 [μM] (SD) / COX-2.

The target of another assay is T2, COX-1 (Ovis aries, UniProt P05979).
T2 construct: gene PTGS1; kit is understood to hold ovine COX-1
T2 sequence (P05979 25-600): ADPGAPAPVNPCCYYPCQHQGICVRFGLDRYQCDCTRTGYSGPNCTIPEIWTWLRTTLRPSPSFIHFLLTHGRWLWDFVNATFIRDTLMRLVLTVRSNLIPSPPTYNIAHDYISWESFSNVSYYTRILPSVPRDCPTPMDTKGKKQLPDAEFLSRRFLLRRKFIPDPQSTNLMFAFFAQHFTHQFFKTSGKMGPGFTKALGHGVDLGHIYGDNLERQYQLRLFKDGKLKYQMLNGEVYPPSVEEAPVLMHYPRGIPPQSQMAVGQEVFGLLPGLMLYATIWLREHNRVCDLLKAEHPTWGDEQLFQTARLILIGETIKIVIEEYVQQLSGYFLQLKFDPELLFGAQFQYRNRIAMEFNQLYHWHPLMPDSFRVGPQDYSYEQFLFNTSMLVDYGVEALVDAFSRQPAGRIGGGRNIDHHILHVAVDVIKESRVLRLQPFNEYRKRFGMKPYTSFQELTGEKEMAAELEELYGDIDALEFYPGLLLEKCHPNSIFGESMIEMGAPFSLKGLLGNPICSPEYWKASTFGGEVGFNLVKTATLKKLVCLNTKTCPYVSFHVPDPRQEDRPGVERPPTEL
Nature of the assay: colorimetric COX peroxidase assay (Cayman […]), […] nm. It is filed as biochemical. Conditions: read-out: IC50 [μM] (SD) / COX-1.

Structures are written as SMILES.

As for `CCCCn1c(C)c2c(OCc3nnc(SCC(=O)N4CCN(c5cc(C)ccc5C)CC4)o3)nn(C)c(=O)c2c1C` [5b, 3,5,7-trimethyl-1-[[2-[2-oxo-2-(4-(2,5-dimethylphenyl)piperazin-1-yl)ethyl]sulfanyl-1,3,4-oxadiazol-5-yl]methoxy]-6-butyl-pyrrolo[3,4-d]pyridazin-4-one], the IC50 on COX-2 was found to be 53.8 µM; at COX-1, 51.8 µM.

As to `Cc1c2c(OCc3n[nH]c(=S)o3)nn(C)c(=O)c2c(C)n1-c1ccccc1` [1a], the IC50 amounted to 43.6 µM at COX-2 and 130 µM on COX-1.

`Cc1ccc(C)c(N2CCN(C(=O)CSc3nnc(COc4nn(C)c(=O)c5c(C)n(-c6ccccc6)c(C)c45)o3)CC2)c1` [5a, 3,5,7-trimethyl-1-[[2-[2-oxo-2-(4-(2,5-dimethylphenyl)piperazin-1-yl)ethyl]sulfanyl-1,3,4-oxadiazol-5-yl]methoxy]-6-phenyl-pyrrolo[3,4-d]pyridazin-4-one]: the IC50 at COX-2 is 50.1 µM; on COX-1 it was 53.2 µM.

`Cc1c2c(OCc3nnc(SCC(=O)N4CCN(c5ccc(Cl)c(Cl)c5)CC4)o3)nn(C)c(=O)c2c(C)n1-c1ccccc1` [7a, 3,5,7-trimethyl-1-[[2-[2-oxo-2-(4-(3,4-dichloro)piperazin-1-yl)ethyl]sulfanyl-1,3,4-oxadiazol-5-yl]methoxy]-6-phenyl-pyrrolo[3,4-d]pyridazin-4-one]: the IC50 at COX-2 amounted to 50.3 µM; on COX-1 it was 51.6 µM.

Take `CCCCn1c(C)c2c(OCc3nn(CN4CCN(c5cc(C)ccc5C)CC4)c(=S)o3)nn(C)c(=O)c2c1C` [2b, 3,5,7-Trimethyl-6-butyl-1-[[4-[(4-(2,5-dimethylphenyl)piperazin-1-yl)methyl]-2-thioxo-1,3,4-oxadiazol-5-yl]methoxy]pyrrolo[3,4-d]pyridazin-4-one]: the IC50 on COX-2 was 49.4 µM; at COX-1 it was 50 µM.

Consider `Cc1c2c(OCc3nnc(SCC(=O)N4CCN(c5ccc(F)cc5F)CC4)o3)nn(C)c(=O)c2c(C)n1-c1ccccc1` [6a, 3,5,7-trimethyl-1-[[2-[2-oxo-2-(4-(2,4-difluorophenyl)piperazin-1-yl)ethyl]sulfanyl-1,3,4-oxadiazol-5-yl]methoxy]-6-phenyl-pyrrolo[3,4-d]pyridazin-4-one], for which the IC50 at COX-2 worked out at 50.2 µM; on COX-1, 52.3 µM.

For `Cc1ccc(C)c(N2CCN(Cn3nc(COc4nn(C)c(=O)c5c(C)n(-c6ccccc6)c(C)c45)oc3=S)CC2)c1` [2a, 3,5,7-Trimethyl-6-phenyl-1-[[4-[(4-(2,5-dimethylphenyl)piperazin-1-yl)methyl]-2-thioxo-1,3,4-oxadiazol-5-yl]methoxy]pyrrolo[3,4-d]pyridazin-4-one], the IC50 on COX-2 is 49.7 µM; on COX-1 it was 50.3 µM.

Regarding `CCCCn1c(C)c2c(OCc3nn(CN4CCN(c5ccc(F)cc5F)CC4)c(=S)o3)nn(C)c(=O)c2c1C` [3b], the IC50 on COX-2 was 56 µM; on COX-1, 54.3 µM.

Take `CCCCn1c(C)c2c(OCc3nnc(SCC(=O)N4CCN(c5ccc(F)cc5F)CC4)o3)nn(C)c(=O)c2c1C` [6b, 3,5,7-trimethyl-1-[[2-[2-oxo-2-(4-(2,4-difluorophenyl)piperazin-1-yl)ethyl]sulfanyl-1,3,4-oxadiazol-5-yl]methoxy]-6-butyl-pyrrolo[3,4-d]pyridazin-4-one]: the figures for the IC50 at COX-2 and at COX-1 were 50.1 µM and 51.1 µM, respectively.

As to `CCCCn1c(C)c2c(OCc3n[nH]c(=S)o3)nn(C)c(=O)c2c1C` [1b], the IC50 is 63.4 µM on COX-2 and 138 µM on COX-1.

With `Cc1c2c(OCc3nn(CN4CCN(c5ccc(Cl)c(Cl)c5)CC4)c(=S)o3)nn(C)c(=O)c2c(C)n1-c1ccccc1` [4a, 3,5,7-Trimethyl-6-phenyl-1-[[4-[(4-(3,4-dichlorophenyl)piperazin-1-yl)methyl]-2-thioxo-1,3,4-oxadiazol-5-yl]methoxy]pyrrolo[3,4-d]pyridazin-4-one], the IC50 on COX-2 is 49.2 µM; at COX-1, 50.2 µM.

Turning to `CCCCn1c(C)c2c(OCc3nnc(SCC(=O)N4CCN(c5ccc(Cl)c(Cl)c5)CC4)o3)nn(C)c(=O)c2c1C` [7b, 3,5,7-trimethyl-1-[[2-[2-oxo-2-(4-(3,4-dichlorophenyl)piperazin-1-yl)ethyl]sulfanyl-1,3,4-oxadiazol-5-yl]methoxy]-6-butyl-pyrrolo[3,4-d]pyridazin-4-one], the IC50 on COX-2 was found to be 49.5 µM; at COX-1, 50.9 µM.

For `Cc1c2c(OCc3nn(CN4CCN(c5ccc(F)cc5F)CC4)c(=S)o3)nn(C)c(=O)c2c(C)n1-c1ccccc1` [3a, 3,5,7-Trimethyl-6-phenyl-1-[[4-[(4-(2,4-difluorophenyl)piperazin-1-yl)methyl]-2-thioxo-1,3,4-oxadiazol-5-yl]methoxy]pyrrolo[3,4-d]pyridazin-4-one], the values for the IC50 at COX-2 and at COX-1 were 49.7 µM and 50.3 µM, respectively.

As for `CCCCn1c(C)c2c(OCc3nn(CN4CCN(c5ccc(Cl)c(Cl)c5)CC4)c(=S)o3)nn(C)c(=O)c2c1C` [4b, 3,5,7-Trimethyl-6-butyl-1-[[4-[(4-(3,4-dichlorophenyl)piperazin-1-yl)methyl]-2-thioxo-1,3,4-oxadiazol-5-yl]methoxy]pyrrolo[3,4-d]pyridazin-4-one], the IC50 at COX-2 was 57.3 µM; at COX-1, 56.8 µM.

Values taken from publication PMC8431030, “In Vitro and In Silico Evaluation of New 1,3,4-Oxadiazole Derivatives of Pyrrolo[3,4-d]pyridazinone as Promising Cyclooxygenase Inhibitors” (International Journal of Molecular Sciences, 2021).
